Values of other authors as cited in patent US4410715A, “Process for the epoxidation of olefins using a group V metal co-catalyst I and a phenolic hydrocarbon co-catalyst II” (Exxon Research & Engineering Co., priority 1982, dated 1983).

Settings: for pKa: aqueous solution at 25° C.

Structure (SMILES)	basicity (footnote to pKa column, in words) (in place of a pKa value)	pKa
C1COCCO1 [1,4-dioxane, reference compound]	basic	–
Oc1ccc(Cl)cc1Cl [2,4-DCP, 2,4-dichlorophenol]	–	7.7
CC(C)(C)c1ccc(O)c(C(C)(C)C)c1 [2,4-di-t-butyl phenol]	–	11.6
Oc1c(Cl)cccc1Cl [2,6-DCP, 2,6-dichlorophenol]	–	6.8
COc1ccccc1O [2-methoxy-phenol, 2-methoxyphenol]	–	10.0
Oc1cccc(Cl)c1 [m-chlorophenol]	–	8.8
Oc1ccccc1Cl [o-chlorophenol]	–	8.5
Oc1ccc(Cl)cc1 [p-chlorophenol]	–	9.2
Cc1ccc(O)cc1 [p-cresol]	–	10.2
